Four compounds from the supplement of paper PMC10307832 can be followed below.

The structures appear in SMILES notation.

Experiment in all cases: relative viability (nuclei count vs DMSO), 5 days (fraction); higher = more cells survive
One assay concerns SW 900. Summed up:
(§1)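 After 5 days of treatment, lung cancer cells in 1536-well plates were fixed and stained in a single step (final 0.05% Triton X-100, 1% formaldehyde, 1 ug/ml Hoechst) and their nuclei counted on 4× images. Treatment had been applied by pin tool the day after seeding as one drug alone or as a fixed anchor-drug dose with five library-drug doses (not always all listed) in √10 steps. Relative viability is the nuclei count of treated wells divided by that of vehicle wells, and values are medians of duplicate plates.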

The next assay has as its system NCI-H2342. The method in brief:
as §1

The next assay relates to A549. Summed up:
as §1

The next assay deals with NCI-H522. Summed up: as §1
The test system of the next assay is NCI-H1648. Summed up:
as §1

A further assay has as its system IA-LM. The method in brief:
as §1

In the next assay the test system is NCI-H1563. The method in brief:
as §1

In another assay the test system is NCI-H1623. The method in brief:
as §1

Consider `O=C(O)CCCCC(CCSCc1ccccc1)SCc1ccccc1` (stereo unspecified) [CPI-613] + Nc1ncn([C@H]2C[C@H](O)[C@@H](CO)O2)c(=O)n1 [Decitabine] (partner 2 µM), for which the relative viability is 0.458 in the assay on SW 900 (first compound 5 µM); 0.429 in the assay with SW 900 (first compound 50 µM); 0.332 with SW 900 (first compound 158.11 µM); 0.0668 in the assay with SW 900 (first compound 500 µM); 0.669 with NCI-H2342 (first compound 5 µM); 0.656 with NCI-H2342 (first compound 15.81 µM). Further, the relative viability in the assay with NCI-H2342 (first compound 50 µM) was determined as 0.838; in the assay on NCI-H2342 (first compound 158.11 µM), 0.78; in the assay on NCI-H2342 (first compound 500 µM), 0.779; in the assay with A549 (first compound 5 µM) it was 0.284; with A549 (first compound 15.81 µM), 0.195; in the assay with A549 (first compound 50 µM) it was 0.269. The relative viability with A549 (first compound 158.11 µM) is 0.259; in the assay on A549 (first compound 500 µM), 0.161; with NCI-H522 (first compound 5 µM), 0.678; in the assay with NCI-H522 (first compound 15.81 µM), 0.585; in the assay with NCI-H522 (first compound 50 µM) it was 0.697; in the assay on NCI-H522 (first compound 158.11 µM), 0.627. The relative viability with NCI-H522 (first compound 500 µM) was 0.3; with NCI-H1648 (first compound 5 µM), 0.568; with NCI-H1648 (first compound 15.81 µM), 0.409; with NCI-H1648 (first compound 50 µM) it was 0.57; with NCI-H1648 (first compound 158.11 µM), 0.4; with NCI-H1648 (first compound 500 µM), 0.172.

Regarding `Cc1cnc(-c2cnc(NCCNc3ccc(C#N)cn3)nc2-c2ccc(Cl)cc2Cl)[nH]1` + O=C(CCCCCCC(=O)Nc1ccccc1)NO [Vorinostat] (partner 1 µM), the relative viability in the assay with SW 900 (first compound 0.08 µM) stood at 0.381; with SW 900 (first compound 0.253 µM) it was 0.49; in the assay with SW 900 (first compound 0.8 µM), 0.519; with SW 900 (first compound 2.53 µM), 0.472; in the assay with NCI-H2342 (first compound 0.08 µM), 0.753; in the assay with NCI-H2342 (first compound 0.253 µM), 0.685. Moreover, the relative viability in the assay with NCI-H2342 (first compound 0.8 µM) amounted to 0.838; with NCI-H2342 (first compound 2.53 µM) it was 0.648; with NCI-H522 (first compound 0.08 µM) it was 1.01; with NCI-H522 (first compound 0.253 µM), 0.947; in the assay on NCI-H522 (first compound 0.8 µM) it was 0.958; with NCI-H522 (first compound 2.53 µM), 0.842. Moreover, the relative viability came to 1.16 in the assay with IA-LM (first compound 0.08 µM); 0.973 in the assay with IA-LM (first compound 0.8 µM); 0.888 in the assay on IA-LM (first compound 2.53 µM); 0.718 in the assay with NCI-H1648 (first compound 0.08 µM); 0.516 with NCI-H1648 (first compound 0.253 µM); 0.241 in the assay on NCI-H1648 (first compound 0.8 µM). This compound also registered a relative viability in the assay with NCI-H1648 (first compound 2.53 µM) of 0.327.

On to `O=C(O)CCCCC(CCSCc1ccccc1)SCc1ccccc1` (stereo unspecified) [CPI-613] + O=C(CCCCCCC(=O)Nc1ccccc1)NO [Vorinostat] (partner 1 µM), for which the relative viability in the assay with SW 900 (first compound 5 µM) came to 0.512; in the assay on SW 900 (first compound 50 µM), 0.555; with SW 900 (first compound 158.11 µM), 0.316; in the assay with SW 900 (first compound 500 µM) it was 0.0227; in the assay with NCI-H2342 (first compound 5 µM) it was 0.648; in the assay with NCI-H2342 (first compound 15.81 µM), 0.629. For the same compound, the relative viability in the assay with NCI-H2342 (first compound 50 µM) is 0.721; with NCI-H2342 (first compound 158.11 µM), 0.763; in the assay on NCI-H2342 (first compound 500 µM) it was 0.939; in the assay on NCI-H522 (first compound 5 µM), 0.841; with NCI-H522 (first compound 15.81 µM) it was 0.812; in the assay with NCI-H522 (first compound 50 µM) it was 0.833. For the same compound, the relative viability is 0.741 in the assay with NCI-H522 (first compound 158.11 µM); 0.244 in the assay on NCI-H522 (first compound 500 µM); 0.876 in the assay on IA-LM (first compound 5 µM); 0.869 in the assay with IA-LM (first compound 15.81 µM); 0.685 in the assay on IA-LM (first compound 50 µM); 0.937 in the assay with IA-LM (first compound 500 µM). Also, the relative viability came out at 0.527 in the assay on NCI-H1648 (first compound 5 µM); 0.336 in the assay with NCI-H1648 (first compound 15.81 µM); 0.422 in the assay on NCI-H1648 (first compound 50 µM); 0.142 in the assay on NCI-H1648 (first compound 158.11 µM); 0.0754 in the assay on NCI-H1648 (first compound 500 µM).

Regarding `Cc1cnc(-c2cnc(NCCNc3ccc(C#N)cn3)nc2-c2ccc(Cl)cc2Cl)[nH]1` + CCNC(=O)c1noc(-c2cc(C(C)C)c(O)cc2O)c1-c1ccc(CN2CCOCC2)cc1 [Luminespib] (partner 0.01 µM), the relative viability in the assay with SW 900 (first compound 0.08 µM) was found to be 0.196; in the assay with SW 900 (first compound 0.253 µM) it was 0.168; in the assay on SW 900 (first compound 0.8 µM), 0.206; with SW 900 (first compound 2.53 µM), 0.203; in the assay on NCI-H1563 (first compound 0.08 µM) it was 0.473; in the assay on NCI-H1563 (first compound 0.253 µM) it was 0.535. The relative viability is 0.499 in the assay with NCI-H1563 (first compound 0.8 µM); 0.439 with NCI-H1563 (first compound 2.53 µM); 0.825 in the assay on NCI-H2342 (first compound 0.08 µM); 0.654 in the assay on NCI-H2342 (first compound 0.253 µM); 0.694 with NCI-H2342 (first compound 0.8 µM); 0.584 in the assay with NCI-H2342 (first compound 2.53 µM). Moreover, the relative viability was found to be 0.594 in the assay with NCI-H1623 (first compound 0.08 µM); 0.622 in the assay on NCI-H1623 (first compound 0.253 µM); 0.542 with NCI-H1623 (first compound 0.8 µM); 0.507 in the assay with NCI-H1623 (first compound 2.53 µM); 1.14 in the assay on NCI-H522 (first compound 0.08 µM); 1.02 in the assay with NCI-H522 (first compound 0.253 µM). Also, the results for the relative viability with NCI-H522 (first compound 0.8 µM) and with NCI-H522 (first compound 2.53 µM) were 0.99 and 1.31, respectively.
